Measurements reported in patent publication US20250034264A1, “REGULATING T CELL IMMUNE RESPONSE THROUGH IGF-I RECEPTOR (IGF-1R)” (The Regents of the University of Michigan, priority 2021, published 2025).

Experiments:
fibrocytes and GD-OF = test: BAFF expression and induction by bTSH; type: cell-based, human; details: teprotumumab 50 μg/ml or rhSlit2 50 ng/ml
Description: FIGS. 12A-12F are graphs showing the effect of bTSH, teprotumumab, and Slit2 on B-cell activating factor (BAFF) expression in fibrocytes and GD-OF. In FIGS. 12A and 12B, cultures were treated for the graded intervals indicated along the abscissas with bTSH (5 mIU/mL). Cellular RNA was harvested and subjected to reverse transcription by RT-PCR (FIG. 12A). Values were normalized to their respective GAPDH levels Medium was assayed for BAFF levels with an ELISA (FIG. 12B). Values were normalized to respective monolayer protein content. Data are expressed as mean f SD of triplicate determinations; *, p<0.05; **, p<0.01; ***, p<0.001. In FIGS. 12C-12F, bTSH, teprotumumab (50 μg/ml) or recombinant human Slit2 (rhSlit2) (50 ng/ml) were added to culture media for the times indicated and analyzed for BAFF mRNA levels as in FIG. 12A. In FIGS. 12F, parental GD-OF strains were sorted into pure CD34^+ and CD34^− subsets. Subsets were then cultured for 48 h, the final 6 h in the absence or presence of bTSH. Data were expressed as mean f SD of triplicate independent determinations from a single experiment representative of three conducted. *, p<0.05; **, p<0.01
IL-12, IL-23, IL-10, HA and BAFF ELISAs. Confluent cultures were treated with nothing or teprotumumab (50 μg/mL) for 5 d, without or with bTSH (5 mU/mL) for the intervals indicated or 72 h. […]

fibrocytes = test: mRNA stability with DRB; type: cell-based, human; details: 50 μg/mL, up to 12 hrs
Description: FIGS. 5A-5C show the effects of teprotumumab on basal and bTSH-induced gene promoter activities in GD-OF compared to fibrocytes, gene transcription and mRNA stabilities of MHC II, CD80, CD86, PD-L1 in fibrocytes. Confluent GD-OF and fibrocyte monolayers were treated with human Isotype IgG (5 μg/ml) or teprotumumab (50 μg/mL) for 3 d and transfected with a target gene promoter fragment (MHC-2, CD80, CD86, PD-L1, or negative control clone PG04). Following a 3-4 d incubation, they were treated without or with bTSH (5 mU/mL) for 2 h. Monolayers were rinsed, processed, and analyzed using the Secrete-Pair Dual Luminescence Assay Kit for promoter activity according to manufacturer's instructions (FIG. 5A). Values were normalized to internal controls. Fibrocyte monolayers were cross-linked with 16% formaldehyde isolated chromatin fragment and immunoprecipitated with anti-human HLA-DPB1, anti-CD80, anti-CD86, or anti-PD-L1 using the Pierce™ Agarose Chip Kit. Isolated DNA was subjected to RT-PCR using EpiTect ChIP qPCR Primer Assay (Qiagen) for each target (FIG. 5B). Each datum point represents values from three independent determinations from one of three experiments performed. *, p<0.05; ** p<0.01; and ***p<0.001. Fibrocyte cultures were pretreated with bTSH for 6 h. […] RNA was extracted, reverse transcribed, and subjected to real-time quantitative PCR for each target (FIG. 5C). […]

[1] = test system: circulating CD3+CD4+ T cells; test: Phase 2 TAO trial: INFγ and IL-17A in circulating T cells (flow cytometry); type: in vivo, human; details: TAO patients, 20 mg/Kg, 24-week treatment
Description: Studies of circulating CD34^+ fibrocytes and T cells PBMCs from patients with active, moderate to severe TAO enrolled in a phase 2 trial for teprotumumab were cryopreserved immediately after collection. Venous blood sampling occurred at baseline and at week 24, following 8 infusions at 3 weekly intervals. The post-treatment sample was obtained 3 weeks after the final infusion of active drug or placebo. Samples were thawed and incubated with 10% knockout serum replacement medium for 1h and stained. Rinsed samples were subjected to FACS analysis with a Calibur flow cytometer (BD). Viable cells were gated on the basis of forward light scatter. All samples were analyzed using quadrant settings based on negative staining with isotype control antibodies. Mean fluorescent intensity (MFI) was calculated as the ratio of mean sample to isotype control fluorescence. Data were analyzed with FCS Express software (De Novo Software, Ontario, CA).

teprotumumab
bTSH induction of BAFF (fibrocytes and GD-OF): attenuated | stabilities of mRNA encoding MHC II, CD80, CD86, PD-L1 (fibrocytes): accelerated their decline | reduction of IL-17A expression level in CD4+ T cells [1]: 47% | reduction of INFγ expression level in CD4+ T cells [1]: 41%
